Assay results: ChEMBL document CHEMBL1201862, “PubChem BioAssay data set” (2004)
The source made the active and inactive calls.

Tests used:
[1] = biological target: T1, COUP transcription factor 2 (Homo sapiens, UniProt P24468); experiment: Luminescence-based cell-based high throughput dose response assay to identify inhibitors of COUP-TFII (NR2F2).; type: functional;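 also: HEK293 cells transiently cotransfected with COUP-TFII expression vector and reporter; luciferase reporter luminescence driven by COUP-TFII from the pX2-168 reporter plasmid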
T1 sequence (P24468 whole entry): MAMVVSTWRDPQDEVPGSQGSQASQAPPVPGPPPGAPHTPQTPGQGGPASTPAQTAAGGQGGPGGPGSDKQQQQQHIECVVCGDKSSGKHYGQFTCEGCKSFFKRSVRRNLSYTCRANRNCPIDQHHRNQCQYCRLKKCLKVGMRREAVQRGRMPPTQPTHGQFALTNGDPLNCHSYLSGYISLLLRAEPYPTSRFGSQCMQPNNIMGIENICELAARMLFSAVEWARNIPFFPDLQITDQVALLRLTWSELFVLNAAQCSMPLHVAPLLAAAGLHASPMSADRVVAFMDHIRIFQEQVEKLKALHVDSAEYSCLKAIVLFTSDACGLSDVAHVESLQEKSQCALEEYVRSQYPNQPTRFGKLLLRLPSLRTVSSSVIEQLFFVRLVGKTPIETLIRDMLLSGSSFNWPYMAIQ

[2] = biological target: T2, fMet-Leu-Phe receptor (Homo sapiens, UniProt P21462); experiment: formyl peptide receptor binders – dose response (AID 519); type: functional
T2 sequence (P21462 whole entry): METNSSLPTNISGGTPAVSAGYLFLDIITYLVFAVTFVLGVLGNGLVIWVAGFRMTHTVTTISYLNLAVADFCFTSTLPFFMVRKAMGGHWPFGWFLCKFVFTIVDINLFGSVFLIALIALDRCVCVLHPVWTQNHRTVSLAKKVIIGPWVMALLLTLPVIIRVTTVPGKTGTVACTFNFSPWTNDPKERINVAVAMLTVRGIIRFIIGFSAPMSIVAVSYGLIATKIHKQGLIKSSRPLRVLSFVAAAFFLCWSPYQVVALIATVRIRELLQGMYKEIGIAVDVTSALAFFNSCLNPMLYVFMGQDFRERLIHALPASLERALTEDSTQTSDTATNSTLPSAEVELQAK

[3] = general mammalian cell viability loss – inhibitor set, cherry-pick, set 2, cytotoxicity control for miR-122 modulator project, dose response (AID 720697); type: functional, cell-based
[4] = system: BJ; experiment: BJ-TERT fibroblast viability loss – cell-based, RAS-independent, luminescence, dose response (AID 1933); type: functional; conditions: Homo sapiens
[5] = system: BJ; experiment: cells; type: functional, cell-based; conditions: Homo sapiens
[6] = system: BJ; experiment: BJ-TERT-LT-ST fibroblast viability loss – cell-based, RAS-independent, luminescence, dose response (AID 1935); type: functional; conditions: Homo sapiens;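 also: BJ fibroblasts immortalized with TERT plus LT and ST oncogenes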
[7] = DRD fibroblast viability loss – cell-based, non-viral oncogenic, luminescence, dose response (AID 1934); type: functional; conditions: Homo sapiens
[8] = system: BJ; experiment: growth inhibition of engineered Ras-driven BJ cells – cell-based, alamar blue fluorescence, cherrypicked samples, dose response (AID 2631); type: functional; conditions: Homo sapiens;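 also: confirmatory dose-response assay in RAS-dependent BJ fibroblasts engineered with TERT, LT and ST, with cytotoxicity read by fluorescence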
[9] = activation of miR-122 Renilla sensor silencing – cell-based, Huh7 psiCHECK-miR122, Renilla luciferase, cherry-picked, dose response (AID 651956); type: functional;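 also: huh7 hepatoma cells stably carrying a psiCHECK-2 miR-122 sensor plasmid; renilla luciferase signal reporting endogenous miR-122 activity after 48 h compound exposure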
[10] = biological target: Paired box protein Pax-8 (Homo sapiens, UniProt Q06710); experiment: PAX8 transcriptional activity inhibition in RMG-I – RMG-I cells, luciferase, cherry-pick, dose response (AID 687027); type: functional, cell-based;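 also: luciferase reporter driven by Pax8 target thyroperoxidase promoter measured by SteadyGlo luminescence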
[11] = general mammalian cell viability loss – activator set, cherry-pick, cytotoxicity control for miR-122 modulator project, dose response (AID 720690); type: functional, cell-based;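 also: HEK293T human cells scored for general mammalian cytotoxicity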
[12] = general cell-killing toxicity readout – plate reader, dry powder samples, cytotoxicity control for PAX8 inhibitor project, dose response (AID 743021); type: functional, cell-based
[13] = biological target: FAD-linked sulfhydryl oxidase ALR (Homo sapiens, UniProt P55789); experiment: ALR-catalysed DTT oxidation blockers – biochemical, H2O2 detection, luminescence, cherry-pick, dose response (AID 493248)
[14] = biological target: T3, Carboxy-terminal domain RNA polymerase II polypeptide A small phosphatase 1 (Homo sapiens, UniProt Q9GZU7); experiment: CTDSP1 inhibitors, concentration-response, biochemical, absorbance readout, ultra-high-throughput screen actives (AID 540297); type: functional
T3 sequence (Q9GZU7 whole entry): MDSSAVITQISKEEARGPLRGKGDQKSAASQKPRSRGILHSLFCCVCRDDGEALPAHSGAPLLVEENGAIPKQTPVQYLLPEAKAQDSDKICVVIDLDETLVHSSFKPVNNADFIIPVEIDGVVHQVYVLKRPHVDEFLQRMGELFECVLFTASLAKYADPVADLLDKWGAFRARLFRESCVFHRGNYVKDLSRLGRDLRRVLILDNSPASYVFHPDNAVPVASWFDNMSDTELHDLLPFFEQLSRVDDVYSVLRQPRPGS

[15] = biological target: T4, Caspase-6 (Homo sapiens, UniProt P55212); experiment: inhibition of CASP6 peptide cleavage – biochemical, VEID-R110 fluorescence, cherry-pick, dose response (AID 720632)
T4 sequence (P55212 whole entry): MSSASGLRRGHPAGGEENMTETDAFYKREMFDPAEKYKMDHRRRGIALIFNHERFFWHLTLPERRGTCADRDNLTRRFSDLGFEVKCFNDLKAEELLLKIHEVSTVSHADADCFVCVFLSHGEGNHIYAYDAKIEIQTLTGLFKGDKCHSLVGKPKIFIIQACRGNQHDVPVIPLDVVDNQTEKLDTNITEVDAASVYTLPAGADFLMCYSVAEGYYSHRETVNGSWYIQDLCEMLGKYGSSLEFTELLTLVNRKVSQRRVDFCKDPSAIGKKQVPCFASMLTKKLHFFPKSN

[16] = biological target: T5, Histone-lysine N-methyltransferase NSD2 (Homo sapiens, UniProt O96028); type: biochemical
T5 sequence (O96028 whole entry): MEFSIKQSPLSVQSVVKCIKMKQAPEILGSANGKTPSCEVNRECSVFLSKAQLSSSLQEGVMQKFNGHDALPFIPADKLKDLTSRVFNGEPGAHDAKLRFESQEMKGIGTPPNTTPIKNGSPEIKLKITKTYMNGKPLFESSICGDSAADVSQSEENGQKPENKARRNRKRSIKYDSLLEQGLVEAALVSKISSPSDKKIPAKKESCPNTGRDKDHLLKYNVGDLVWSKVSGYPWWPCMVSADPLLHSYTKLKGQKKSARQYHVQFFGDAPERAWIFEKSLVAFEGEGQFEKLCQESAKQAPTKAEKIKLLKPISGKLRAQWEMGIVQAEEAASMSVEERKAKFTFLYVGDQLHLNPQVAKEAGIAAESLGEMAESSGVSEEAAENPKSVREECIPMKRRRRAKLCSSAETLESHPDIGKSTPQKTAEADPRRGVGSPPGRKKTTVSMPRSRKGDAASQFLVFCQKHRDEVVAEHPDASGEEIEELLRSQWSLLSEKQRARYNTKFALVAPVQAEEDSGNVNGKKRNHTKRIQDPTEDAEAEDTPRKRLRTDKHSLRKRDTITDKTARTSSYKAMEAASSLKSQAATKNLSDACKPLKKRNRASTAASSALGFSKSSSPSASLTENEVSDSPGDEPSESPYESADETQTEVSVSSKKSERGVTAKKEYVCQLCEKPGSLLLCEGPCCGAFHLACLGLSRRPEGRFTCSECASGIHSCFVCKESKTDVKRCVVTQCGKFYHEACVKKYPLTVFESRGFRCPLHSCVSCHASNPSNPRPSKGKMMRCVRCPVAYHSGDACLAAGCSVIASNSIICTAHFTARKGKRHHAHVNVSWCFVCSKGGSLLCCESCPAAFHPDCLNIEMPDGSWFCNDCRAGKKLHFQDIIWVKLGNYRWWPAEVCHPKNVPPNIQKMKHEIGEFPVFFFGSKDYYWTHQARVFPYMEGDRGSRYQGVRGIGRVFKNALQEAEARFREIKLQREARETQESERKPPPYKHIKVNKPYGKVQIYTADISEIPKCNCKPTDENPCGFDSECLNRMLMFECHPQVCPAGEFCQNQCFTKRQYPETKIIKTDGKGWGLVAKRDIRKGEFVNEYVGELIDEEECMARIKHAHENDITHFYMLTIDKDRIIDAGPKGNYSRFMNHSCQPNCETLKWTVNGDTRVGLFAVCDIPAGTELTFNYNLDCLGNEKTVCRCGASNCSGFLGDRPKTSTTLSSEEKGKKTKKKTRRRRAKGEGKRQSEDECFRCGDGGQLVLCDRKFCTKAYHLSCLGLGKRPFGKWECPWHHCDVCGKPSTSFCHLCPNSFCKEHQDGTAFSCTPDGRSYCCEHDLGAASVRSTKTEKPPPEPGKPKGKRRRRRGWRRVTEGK

[17] = luciferase reporter signal suppression in cells – H4 neuroglioma cells, luminescence, dose response (AID 1990); type: functional, cell-based
[18] = Luminescence Cell-Based Dose Response HTS to Identify Inhibitors of 5'UTR Stem-Loop Driven Prion Protein mRNA Translation in H4 Neuroglioblastoma Cells. [Related pubchem assays: 1827 (Project Summary), 1813 (Primary HTS)]; type: functional
[19] = alpha-synuclein stem-loop luciferase translation blockers – H4 neuroglioma cells, luminescence, confirmation (AID 1988); type: functional, cell-based
[20] = Trypanosoma cruzi growth suppression in host cells – NIH3T3 host cells, beta-gal luminescence, confirmation (AID 2044); type: functional, cell-based;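 also: intracellular parasites grown in NIH/3T3 mouse fibroblasts as host cells; luminescent beta-galactosidase reporter signal from transgenic T. cruzi replicating inside host cells; inhibitors lower the luminescence signal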
[21] = NIH3T3 cell viability loss – ATP luminescence, mouse fibroblasts, counter-screen, dose response (AID 2010); type: functional, cell-based;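 also: cells exposed to compound for about 90 hours before reading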
[22] = reduction of Shn3 3'UTR-driven luciferase in osteoblasts – cell-based, Clone20 osteoblasts, firefly luciferase, cherry-picked, dose response (AID 624132); type: functional;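 also: firefly luciferase luminescence from reporter carrying the Shn3 3'UTR in osteoblasts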
[23] = loss of viability in HepG2 cells – cell-based, CellTiter-Glo, cherry-picked, cytotoxicity control for Shn3 inhibitor project, dose response (AID 624134); type: functional
[24] = non-specific 3'UTR reporter inhibition in Clone20-Shn3RL – cell-based, Renilla luciferase, cherry-picked, counter-screen for Shn3 inhibitor project, dose response (AID 624133); type: functional
[25] = microbe, parasite or virus in culture; type: functional; conditions: Mycobacterium tuberculosis
[26] = HEK-293T viability loss after treatment – luminescence, T-cell screen hits, cytotoxicity control for TCR NF-kB inhibitor project, dose response (AID 489026); type: functional, cell-based;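 also: cells exposed to compound about 14 hours before the viability readout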
[27] = biological target: T6, Fatty acid synthase (Homo sapiens, UniProt P49327); experiment: inhibition of human FAS-TE enzyme activity – biochemical, endpoint fluorescence intensity, uHTS hits, dose response (AID 624327); type: functional;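 also: fluorescence from hydrolysis of an O-methyl fluorescein acyl ester substrate by the enzyme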
[28] = biological target: T6, Fatty acid synthase; experiment: inhibition of human FAS-TE enzyme activity – biochemical, kinetic fluorescence intensity, dose response (AID 624326); type: functional;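 also: rate of fluorescence rise from hydrolysis of a fluorogenic O-methyl fluorescein ester substrate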
[29] = viability loss in CEM21 cells – cell-based, CellTiter-Glo luminescence, cherry-picked, cytotoxicity control for viral fusion inhibitor project, dose response (AID 652042); type: functional;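 also: potency for signal decrease meaning cytotoxicity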
[30] = HIV-1 AD8 envelope cell-cell fusion blockers – cherry-pick, dose response (AID 652062); type: functional, cell-based;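 also: luciferase signal from cell-cell fusion driven by HIV-1 clade B AD8 Env; potency is for inhibitors of fusion seen as a drop in luminescence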

T6 sequence (P49327 whole entry): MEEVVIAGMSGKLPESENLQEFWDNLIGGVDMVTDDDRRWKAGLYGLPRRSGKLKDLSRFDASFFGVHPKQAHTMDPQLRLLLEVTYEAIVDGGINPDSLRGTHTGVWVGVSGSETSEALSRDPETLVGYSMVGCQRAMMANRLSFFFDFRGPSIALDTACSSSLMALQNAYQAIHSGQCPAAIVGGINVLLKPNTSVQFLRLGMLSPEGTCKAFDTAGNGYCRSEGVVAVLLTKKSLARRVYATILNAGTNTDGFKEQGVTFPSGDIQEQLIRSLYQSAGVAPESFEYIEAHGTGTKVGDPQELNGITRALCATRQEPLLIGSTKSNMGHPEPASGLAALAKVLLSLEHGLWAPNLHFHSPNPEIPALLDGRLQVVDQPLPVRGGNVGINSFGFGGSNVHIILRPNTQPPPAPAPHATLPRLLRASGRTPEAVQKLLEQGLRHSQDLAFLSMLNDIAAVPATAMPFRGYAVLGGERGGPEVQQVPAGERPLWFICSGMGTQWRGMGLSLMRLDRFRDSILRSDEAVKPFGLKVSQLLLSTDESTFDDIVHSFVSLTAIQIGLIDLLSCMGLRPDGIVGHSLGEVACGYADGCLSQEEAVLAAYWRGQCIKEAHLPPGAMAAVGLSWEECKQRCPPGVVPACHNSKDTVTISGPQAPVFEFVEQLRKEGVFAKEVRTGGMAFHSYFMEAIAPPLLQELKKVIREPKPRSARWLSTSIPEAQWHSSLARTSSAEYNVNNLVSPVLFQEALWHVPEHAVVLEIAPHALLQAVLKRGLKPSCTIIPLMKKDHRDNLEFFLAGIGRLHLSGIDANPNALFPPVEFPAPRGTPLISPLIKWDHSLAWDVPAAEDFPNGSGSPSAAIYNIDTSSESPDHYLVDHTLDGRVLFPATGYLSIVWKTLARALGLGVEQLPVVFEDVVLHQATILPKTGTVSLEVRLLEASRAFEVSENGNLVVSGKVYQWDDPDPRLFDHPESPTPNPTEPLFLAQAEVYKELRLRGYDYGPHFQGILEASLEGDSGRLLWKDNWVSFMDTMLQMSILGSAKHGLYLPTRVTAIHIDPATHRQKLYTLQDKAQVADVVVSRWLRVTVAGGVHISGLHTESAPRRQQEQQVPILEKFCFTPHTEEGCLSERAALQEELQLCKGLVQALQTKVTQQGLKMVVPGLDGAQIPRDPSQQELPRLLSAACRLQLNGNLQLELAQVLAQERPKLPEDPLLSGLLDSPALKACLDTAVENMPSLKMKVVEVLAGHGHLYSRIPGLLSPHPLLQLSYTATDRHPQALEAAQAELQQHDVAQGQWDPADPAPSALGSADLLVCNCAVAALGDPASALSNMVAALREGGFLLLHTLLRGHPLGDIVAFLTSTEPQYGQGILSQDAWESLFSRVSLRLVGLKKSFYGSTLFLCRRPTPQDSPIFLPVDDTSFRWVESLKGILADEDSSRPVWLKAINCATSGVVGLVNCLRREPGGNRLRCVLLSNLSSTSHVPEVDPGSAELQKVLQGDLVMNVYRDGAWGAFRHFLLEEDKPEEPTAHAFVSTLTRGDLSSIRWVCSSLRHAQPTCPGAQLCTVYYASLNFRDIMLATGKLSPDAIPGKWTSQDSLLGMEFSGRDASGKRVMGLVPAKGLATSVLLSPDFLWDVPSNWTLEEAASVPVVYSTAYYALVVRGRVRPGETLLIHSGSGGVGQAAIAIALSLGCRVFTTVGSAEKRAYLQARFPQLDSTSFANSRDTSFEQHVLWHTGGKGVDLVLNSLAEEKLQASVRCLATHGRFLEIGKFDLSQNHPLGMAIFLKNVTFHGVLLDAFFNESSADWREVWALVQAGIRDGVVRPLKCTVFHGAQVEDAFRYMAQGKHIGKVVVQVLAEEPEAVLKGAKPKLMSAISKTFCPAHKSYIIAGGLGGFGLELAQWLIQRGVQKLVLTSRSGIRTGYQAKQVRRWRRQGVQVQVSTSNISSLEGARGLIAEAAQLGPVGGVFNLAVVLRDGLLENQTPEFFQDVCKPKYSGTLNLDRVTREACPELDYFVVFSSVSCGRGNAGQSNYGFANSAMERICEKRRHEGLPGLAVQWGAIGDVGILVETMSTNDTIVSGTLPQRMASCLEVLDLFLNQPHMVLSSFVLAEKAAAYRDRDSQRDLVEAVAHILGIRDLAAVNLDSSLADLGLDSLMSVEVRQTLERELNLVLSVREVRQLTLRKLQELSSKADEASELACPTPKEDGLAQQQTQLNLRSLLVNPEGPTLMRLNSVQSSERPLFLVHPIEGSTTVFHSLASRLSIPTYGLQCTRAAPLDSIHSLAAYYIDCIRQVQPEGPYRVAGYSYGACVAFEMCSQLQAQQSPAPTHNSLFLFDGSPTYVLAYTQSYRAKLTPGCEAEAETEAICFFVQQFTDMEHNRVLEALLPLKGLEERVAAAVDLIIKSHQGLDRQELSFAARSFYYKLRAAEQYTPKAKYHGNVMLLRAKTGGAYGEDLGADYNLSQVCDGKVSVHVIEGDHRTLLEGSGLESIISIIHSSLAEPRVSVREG
Sequence of FAD-linked sulfhydryl oxidase ALR (P55789 whole entry, the tested form may be a part): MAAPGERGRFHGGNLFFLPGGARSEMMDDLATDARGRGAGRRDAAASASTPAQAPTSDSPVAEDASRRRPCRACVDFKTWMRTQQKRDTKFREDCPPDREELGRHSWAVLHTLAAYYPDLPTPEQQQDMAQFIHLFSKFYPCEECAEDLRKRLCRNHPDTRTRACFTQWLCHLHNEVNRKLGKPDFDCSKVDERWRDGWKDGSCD
Sequence of Paired box protein Pax-8 (Q06710 whole entry): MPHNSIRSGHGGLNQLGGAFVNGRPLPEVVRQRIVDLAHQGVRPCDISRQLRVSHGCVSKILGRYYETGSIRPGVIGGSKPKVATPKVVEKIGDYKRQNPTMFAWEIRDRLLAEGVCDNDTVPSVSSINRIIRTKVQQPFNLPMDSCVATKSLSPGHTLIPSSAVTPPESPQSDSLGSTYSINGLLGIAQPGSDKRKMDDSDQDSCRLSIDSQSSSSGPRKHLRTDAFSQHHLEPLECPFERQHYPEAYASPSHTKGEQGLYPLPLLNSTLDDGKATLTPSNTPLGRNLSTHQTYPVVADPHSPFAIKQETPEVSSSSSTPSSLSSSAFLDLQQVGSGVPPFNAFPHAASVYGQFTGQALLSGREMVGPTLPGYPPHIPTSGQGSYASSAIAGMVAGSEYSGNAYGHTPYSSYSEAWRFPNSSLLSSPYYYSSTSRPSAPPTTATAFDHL

## CCOC(=O)N1CCC(NC(=O)C2CCCN(Cc3nc(-c4ccc(CC)cc4)oc3C)C2)CC1 (configuration not stated)
[1]
  IC50: 9.26 µM (active)

## O=C1Nc2ccccc2/C1=C1/SC(=S)N(CC2CCCO2)C1=O (configuration not stated)
[2]
  Ki: > 66.7 µM (inactive)

## CCCC(=O)Nc1ccc2c(c1)C(=O)N(C)[C@@H]1CC[C@H](CC(=O)Nc3cn(C)nc3C)O[C@@H]1CO2
[3]
  AC50: 0.499 µM (active)

## COc1ccccc1C1C(C(=O)c2ccccc2)=C(O)C(=O)N1CC(C)O (configuration not stated)
[2]
  Ki: 24.6 µM (inactive)

## Cc1onc(C(=O)N2CCN(C(c3ccccc3)c3ccccc3)CC2)c1[N+](=O)[O-]
[4]
  EC50: 0.659 µM (inconclusive)
[5]
  EC50: 5.65 µM (active)
[6]
  EC50: > 150 µM (not active)
[7]
  EC50: 4.77 µM (active)
[8]
  EC50: 6.63 µM (active)
[9]
  AC50: 66.8 µM (active)
[10]
  AC50: 5.28 µM (active)
[3]
  AC50: 10.8 µM (active)
[11]
  AC50: 3.14 µM (active)
[12]
  AC50: 3.3 µM (active)

## C=CCc1cc(/C=C/c2nc(O)c([N+](=O)[O-])c(O)n2)cc(OC)c1O
[13]
  AC50: 0.469 µM (active)
[14]
  IC50: 19.3 µM (active)
[15]
  AC50: 9.31 µM (active)
[16]
  AC50: > 20 µM (inactive)

## CCOc1ccccc1NC(=O)CSc1nccn1-c1ccccc1
[2]
  Ki: > 66.7 µM (inactive)

## N#Cc1ccc(NC(=O)Nc2ccc(Oc3ccc(NC(=O)Nc4ccc(C#N)cc4)cc3)cc2)cc1
[17]
  EC50: > 120 µM (not active)
[18]
  EC50: 10.1 µM (active)
[19]
  EC50: 8.67 µM (active)
[20]
  EC50: 1.01 µM (active)
[21]
  EC50: > 60 µM (not active)
[22]
  AC50: 2.68 µM (active)
[23]
  AC50: 6.46 µM (active)
[24]
  AC50: 13.1 µM (active)
[3]
  AC50: 5.02 µM (active)
[11]
  AC50: 6.66 µM (active)

## CCOc1cc(C(=O)O)ccc1OCCOc1ccccc1
[15]
  AC50: 34 µM (active)

## CC1Cc2cc(-c3csc(NC(=O)Cc4cccs4)n3)ccc2N1S(C)(=O)=O (configuration not stated)
[25]
  CC50: > 40 µM (active)
[26]
  IC50: 38 µM (inactive)
[27]
  IC50: 14.1 µM (active)
[28]
  IC50: 7.01 µM (active)
[29]
  AC50: 54.5 µM (active)
[30]
  AC50: 5.65 µM (active)
[1]
  IC50: 3.11 µM (active)
